# Laboratory results taken from patent publication US12622892B2, “Methods for treating endometriosis” (THE TEXAS A&M UNIVERSITY SYSTEM, priority 2020, dated 2026).
# Assays:
# ESECT-40 cells [1] = assay: Western blotting of growth promoting and proapoptotic gene products, ESECT-40; assay type: cell-based, human
# Text: Reagents and Antibodies: Annexin V Dead Cell Apoptosis Kit (V13241) was purchased from Invitrogen. The primary antibodies used were EGFR (4267, 1:1000), Survivin (2808, 1:1000), c-Caspase-3 (9661, 1; 1000), c-PARP (9541, 1:1000) from Cell Signaling Technology (Danvers, MA) and c-Myc (sc-40, 1:500), Bcl-2 (sc-509, 1:500) and Bax (sc-20067, 1:500) from Santacruz Biotechnology (Santacruz, CA), NR4A1 (ab109180, 1:3000) and α-SMA (ab32575, 1:3000) from Abcam (Cambridge, MA), β-Actin (A1978, 1:10000) from Sigma Aldrich Corporation (Milwaukee, WI). COL1A1 (GTX112731, 1:2000), CTGF (GTX124232, 1:2000) and FN (GTX112794, 1:2000) from GeneTex, Inc. (Irvine, CA). Secondary antibodies for rabbit (7074), mouse (7076) and Anti-rabbit Alexa Fluor (4412) purchased from Cell Signaling Technology (Danvers, MA). […]
# Western Blotting: ESECT-7 and ESECT-40 cells (2×105) were seeded and allowed to attach for 24 hr, and cells were then treated for 24 hr with either DMSO or different concentrations of DIM-C-pPhOH and DIM-C-pPhOH-3-Cl-5-OCH3. Cells were then lysed and whole-cell lysates were resolved in 10% SDS-PAGE gels and proteins were transferred using PVDF membrane by wet blotting followed by primary and secondary antibody incubation and detected using ECL reagent as described.
# Ishikawa cells = assay: Expression of fibrosis markers in Ishikawa cells; assay type: cell-based; details: 24 hours, FIG. 6D
# ESECT-7 cells = assay: Annexin V staining, ESECT-7; assay type: cell-based, human; details: 10 μM DIM-C-pPhOH-3-Cl-5-OCH3, 25 μM DIM-C-pPhOH, FIG. 3A
# Method: Annexin V staining: ESECT-7 and ESECT-40 cells were seeded in Nunc chambered cover glass followed by various drug treatments. The cells were then washed with ice-cold PBS, and 5 μL Alexa Fluor® 488 Annexin V with 100 μg/mL PI (as per the manufacturer's instructions) were added to the cells and incubated for 15 min, and the cells were observed using a Zeiss confocal fluorescence microscope.
# NEM cells [2] = assay: Western blotting of growth promoting and proapoptotic gene products, NEM cells; assay type: cell-based, human
# NEM cells [3] = assay: Cell growth, normal endometrial NEM cells; assay type: cell-based, human; details: 24 hr; 15-25 μM DIM-C-pPhOH, 5-10 μM DIM-C-pPhOH-3-Cl-5-OCH3; vs DMSO control; FIG. 4A
# Method: (§1) Primary human endometriotic stromal cells from endometriosis patients: Ovarian endometrioma were isolated from endometriosis patients in the proliferative phase following the IRB-approved protocol. Isolated ectopic lesions were digested with collagenase type 3 (300 μg/ml) and DNaseI (40 μg/ml) for 90 min at 37° C., and then tissues were filtered through 150, 100, and 40 μm sieves to isolate endometrial stromal cells. The collected endometrial stromal cells were cultured in DMEM/F12 with 10% FBS plus 1× antibiotic/antimycotic solution and then validated by flow cytometry with a CD90 antibody (a mesenchymal marker). Henceforth, we refer to the stromal cells as ectopic endometrium isolated ovarian endometrioma (ESECT). As the control, primary normal endometrial stromal cells isolated from the biopsy of the eutopic endometrium of normal women (NEM) in the proliferative phase. All cells were incubated at 37° C. in CO2 incubator in an atmosphere of humidified 5% CO2 and 95% air.
# (§2) Cell proliferation assay: Patient-derived endometriotic cells ESECT-7 and ESECT-40 were seeded into a 96-well plate, and the cells were then treated for 24 hr with either DMSO or different concentrations of DIM-C-pPhOH and DIM-C-pPhOH-3-Cl-5-OCH3. […] Dimethyl sulfoxide (DMSO) was added and incubated at […] for 10 min, and absorbance was measured at 570 nm.
# NR4A1 = target: T1, NR4A1 (Homo sapiens, UniProt P22736); assay: Luciferase assay, NR4A1/NBRE-luc in ESECT-7 cells; assay type: cell-based; details: ESECT-7 cells transfected with NR4A1/NBRE-luc; 18 hr treatment; FIG. 2A
# T1 construct: expressed in transfected cells; host or cells: ESECT-7 patient-derived endometriotic cells
# Method: Luciferase assay: ESECT-7 and ESECT-40 cells were plated on 12-well plates in DMEM/F12 supplemented with 2.5% charcoal-stripped FBS. After overnight attachment and growth, various amounts of DNA [i.e., UASx5-Luc (500 ng), GAL4-NR4A1 (50 ng), NBREx3-Luc (800 ng), NurREx3-Luc (800 ng) and Flag-NR4A1 (80 ng)] were co-transfected into each well using Lipofectamine 2000 reagent (Invitrogen, Carlsbad, CA) according to the manufacturer's protocol. After 6 hr of transfection, cells were treated with plating medium (as above) containing either solvent (DMSO) or indicated concentrations of the compound for 18 hr. Cells were then lysed and cell extracts were used for chemiluminescence quantification of luciferase activity. Luciferase activity values were normalized against corresponding protein concentration values determined by Bradford assay. Both GAL4- and Flag-NR4A1 constructs contain full-length NR4A1 coding sequence and all the plasmids used in this study were previously described.
# ESECT-40 cells [4] = assay: Cell proliferation assay (MTT), ESECT-40; assay type: cell-based, human; details: 24 hr; 5-10 μM DIM-C-pPhOH-3-Cl-5-OCH3, 15-25 μM DIM-C-pPhOH; FIG. 2C
# Method: as §1, §2
# Text for mouse ectopic lesions: Endometriosis Mouse Model with Auto-transplantation: One uterine horn was isolated from a female mouse (6 weeks old, C57BL/6J) under anesthesia, and then the uterine horn was longitudinally cut. Using a 2-mm dermal biopsy punch, one endometrial fragment was obtained from the isolated uterus and subsequently sutured to the mesenteric membrane attached to the intestine of the same mouse. The abdominal incision then was closed by suture. Before harvesting ectopic lesions, the mouse estrous cycle was determined using vaginal cytology. At the estrus stage in the 3rd week after endometriosis induction, ectopic lesions were isolated from mice with endometriosis. As the endometriosis control, uteri were isolated from C57BL/6J female mice without endometriosis at the estrus stage at 10 weeks of age.
# Endometriosis Treatment with C-DIM: Endometriosis was induced to mice with auto- and hetero-transplantation method as described above. […] In the case of the auto-transplantation model, we isolated mouse ectopic lesions treated with C-DIM versus the vehicle from mice with endometriosis at the estrus stage in the 3rd week after drug treatment and then determined their volume. In the case of the hetero-transplantation model, we determined the luciferase activity of the human ectopic lesions treated with C-DIM versus vehicle in SCID mice with endometriosis during the drug treatment.
# T1 sequence (P22736 whole entry, species assumed): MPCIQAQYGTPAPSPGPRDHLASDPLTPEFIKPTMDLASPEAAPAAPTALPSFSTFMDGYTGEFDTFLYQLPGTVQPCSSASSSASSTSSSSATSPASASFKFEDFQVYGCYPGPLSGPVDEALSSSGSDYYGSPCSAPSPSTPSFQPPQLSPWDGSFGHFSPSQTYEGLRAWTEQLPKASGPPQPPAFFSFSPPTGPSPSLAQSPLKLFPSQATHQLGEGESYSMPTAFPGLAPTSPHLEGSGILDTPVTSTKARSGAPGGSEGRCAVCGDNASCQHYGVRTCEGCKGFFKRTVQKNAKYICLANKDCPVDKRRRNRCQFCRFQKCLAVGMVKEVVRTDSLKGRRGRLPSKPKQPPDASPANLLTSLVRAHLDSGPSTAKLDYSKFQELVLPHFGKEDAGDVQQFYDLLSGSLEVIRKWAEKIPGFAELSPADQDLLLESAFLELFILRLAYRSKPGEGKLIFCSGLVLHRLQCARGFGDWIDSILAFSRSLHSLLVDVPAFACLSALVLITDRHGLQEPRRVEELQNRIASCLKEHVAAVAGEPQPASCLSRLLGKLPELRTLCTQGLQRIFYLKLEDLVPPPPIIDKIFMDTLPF
smiles,measurement,setting,value
COc1cc(C(c2c[nH]c3ccccc23)c2c[nH]c3ccccc23)cc(Cl)c1O [DIM-C-pPhOH-3-Cl-5-OCH3],expression of EGFR and cMyc,"ESECT-40 cells [1]; 5-10 μM, 24 hr, FIG. 2D",downregulated
same,"markers of apoptosis (downregulation of survivin and Bcl-2, induced Bax, cleaved PARP and caspase-3)","ESECT-40 cells [1]; Five μM, 24 hours, FIG. 3C",significantly induced several markers of apoptosis
same,"expression of fibrosis markers (α-SMA, COL1A1, FN, CTGF)",Ishikawa cells,decreased expression of fibrosis markers
same,Annexin V staining (apoptosis),ESECT-7 cells,significantly induced
same,levels of the cleaved form of PARP and Bax,"NEM cells [2]; 25 μM DIM-C-pPhOH, 10 μM DIM-C-pPhOH-3-Cl-5-OCH3, vs DMSO control, FIG. 4D",did not enhance
same,cMyc and EGFR expression,"NEM cells [2]; 15-25 μM DIM-C-pPhOH, 5-10 μM DIM-C-pPhOH-3-Cl-5-OCH3, vs DMSO control, FIG. 4B",did not decrease
same,reduction of the volume of ectopic lesions compared to the vehicle,"mouse ectopic lesions; 25 mg/kg every day, intraperitoneal, three weeks, p=0.015, FIG. 8D",2.4 fold
same,bodyweight of mice as compared to the vehicle,"mouse ectopic lesions; mouse, in vivo",did not change
same,growth of normal endometrial NEM cells,NEM cells [3],did not suppress the growth
same,intrinsic transcriptional activity of NR4A1,NR4A1,inhibited the intrinsic transcriptional activity
same,growth of ESECT-40 cells,ESECT-40 cells [4],effectively inhibited the growth
